In patent publication US20230414634A1, “METHODS FOR TREATING CHOLESTATIC PRURITUS” (GlaxoSmithKline Intellectual Property (No.2) Limited, priority 2020, published 2023):

Assays:
[1] = tested on: patients with PBC and cholestatic pruritus; assay: GLIMMER Phase 2b study (NCT02966834): itch efficacy and PBC-40 quality of life; assay type: in vivo, human; conditions: for mean increase in itch responder days: difference from placebo, 12 weeks' treatment
Source text: Measurement of Itch (pruritus)—10 Point Numerical Rating Scale (NRS) • Itch Score: itch scores recorded by study participants twice daily; a 0-10 Numerical Rating Scale (NRS) is used to assess itch with a response option of 0 representing no itching and 10 the worst imaginable itching • Worst Daily Itch Score: the worst of two itch scores recorded by a patient daily is considered the score for that day (i.e. the most severe (highest) NRS recorded on a given day) • Mean Worst Daily Itch Score (Weekly Itch Score [WIS]): the average of the Worst Daily Itch Scores in one week (7 days) • Monthly Itch Score (MIS): the worst Mean Worst Daily Itch Score for that month (i.e., worst week score of the 4 weeks) • Itch Response: for example, ≥2-point improvement in mean Worst Daily Itch Score from Baseline • Itch Responder Days: days when the Itch Response definition is met (i.e. days with an Itch Response) • Itch Severity: measured using 0-10 NRS; moderate to severe is ≥4 NRS • Baseline (itch score at the end of the placebo period before treatment,) is the average of the itch scores in the 7 days prior to randomisation (in Example 2, prior to randomisation at Week 4) • Change from Baseline was calculated as the post-Baseline value minus the Baseline value.
GLIMMER trial: Phase 2b study (NCT02966834; GSK study 201000). A randomized, double-blind, placebo-controlled study of linerixibat, an inhibitor of the ileal bile acid transporter, in the treatment of cholestatic pruritus in primary biliary cholangitis, for patients with PBC and pruritus.
The twice daily patient-reported 0-10 Numerical Rating Scale (NRS) worst itch assessment was employed, with the worst value from each day used to calculate the mean worst daily itch, which was then used to assess change in pruritus. This measure has independent content validity in PBC; similar measures are psychometrically valid and have been used to determine changes in itch intensity in PBC.
Patients with PBC with pruritus (≥4 on 0-10 numeric rating scale [NRS]) were enrolled; double-blind treatment was preceded and followed by 4 weeks' single-blind placebo.
At Week 4, patients with NRS ≥3 were randomized,(4:1) to double-blind linerixibat or placebo for 12 weeks (to Week 16), followed by single-blind placebo (to Week 20).
Primary endpoint: mean change from baseline in mean Worst Daily Itch Score at Week 16. Participants were required to score the severity of their itching using the 0-10 NRS, from which the Worst Daily Itch Score is obtained, and the Mean Worst Daily Itch score was calculated as the average of the worst daily itch scores provided in the 7 days prior to the Week 16 visit. Baseline is the average of the scores in the 7 days prior to the Week 4, and the Change from Baseline was calculated. Analysis was done using Analysis of covariance (ANCOVA) including treatment group and centered Mean Worst Daily Itch score at Baseline.
Secondary and exploratory endpoints: itch efficacy, quality of life (PBC-40) and pharmacodynamic biomarkers, and safety and tolerability.
Ad hoc endpoint: change from baseline itch compared with Monthly Itch Score over the main study period.
Due to the potential fluctuation of itch over time, an additional post-hoc analysis was conducted on the primary endpoint according to the FDA preferred approach to evaluate the effect over the entire 12 weeks treatment duration using Monthly Itch Score. A mixed model repeated measures (or mixed-effect repeated measure model) (MMRM) analysis estimated the effect of linerixibat comparing to placebo over the entire 12 weeks treatment duration.

[2] = tested on: TSBA, C4, FGF-19, serum autotaxin and LDL cholesterol; assay: GLIMMER Phase 2b study: pharmacodynamic serum biomarkers; assay type: in vivo, human
Source text: The following biomarkers are useful in clinical investigations relating to the treatment of pruritus, particularly cholestatic pruritus:
Serum 7-α-hydroxy-4-cholesten-3-one (C4)
C4 is an intermediate in the biochemical synthesis of bile acids from cholesterol. C4 concentrations reflect the activity of the bile acid synthetic pathway.
FGF-19 a protein which functions as a hormone, regulating bile acid synthesis, with effects on glucose and lipid metabolism.
Autotaxin is the enzyme that produces lysophosphatidic acid (LPA) which is found to correlate with itch intensity.
LDL one of the five major groups of lipoprotein which transport all fat molecules around the body in the extracellular water.
TSBA are metabolized in the liver and can serve as a marker for normal liver function.
Measurement of Level of Pharmacodynamic Biomarkers
Total serum bile acids (TSBA) (FIG. 10)
Serum 7-α-hydroxy-4-cholesten-3-one (C4) (FIG. 2)
Serum fibroblast growth factor-19 (FGF-19) (FIG. 7)
Serum LDL (low-density lipoprotein) cholesterol (FIG. 9)
Further analysis of biomarker parameters provided clear indication of pharmacological action with decreases in total serum bile acids (TSBA), increases in the serum bile acid precursor C4 (7-a-hydroxy-4-cholesten-3-one) and corresponding mean decreases in fibroblast growth factor 19 (FGF-19), a hormone that regulates bile acid synthesis. […] Reductions in FGF-19 and autotaxin were also observed across most treatment groups during the main study period (excluding placebo for FGF-19 and linerixibat 20 mg QD for autotaxin) (FIG. 7, FIG. 8).

CCCC[C@]1(CC)CS(=O)(=O)c2cc(CNC(CC(=O)O)CC(=O)O)c(OC)cc2[C@@H](c2ccccc2)N1 [linerixibat]
responder days vs placebo ([1]; 40 mg BID and 90 mg BID): Significantly more
Mean Worst Daily Itch Score of patients with moderate to severe itch at baseline, versus placebo ([1]; 40 mg BID, 12 weeks treatment): Significant difference
PBC-40 emotional domain, LS Mean difference vs placebo ([1]; 40 mg BID, 95% CI: −1.9, 0.3): −0.8
PBC-40 social domain, LS Mean difference vs placebo ([1]; 40 mg BID, 95% CI: −4.8, 0.1): −2.4
mean increase in itch responder days ([1]; 40 mg BID): 20%
LS Mean Change from Baseline vs Placebo in Monthly Itch Score over 12 weeks treatment (MMRM, post-hoc) ([1]; 40 mg BID, p=0.011): -1.16
Monthly Itch Score, improvement from baseline over 12 weeks treatment ([1]; 40 mg and 90 mg BID, 180 mg QD): Significant improvement
mean increase in itch responder days ([1]; 90 mg BID): 27%
LS Mean Change from Baseline vs Placebo in Monthly Itch Score over 12 weeks treatment (MMRM, post-hoc) ([1]; 90 mg BID, p=0.037): −0.95
LS Mean Change from Baseline vs Placebo in Monthly Itch Score over 12 weeks treatment (MMRM, post-hoc) ([1]; 180 mg QD, p=0.042): −0.90
pre-specified primary endpoint: dose response across dose ranges ([1]; ITT and per protocol populations): could not be established
mean Worst Daily Itch Score ([1]; all linerixibat doses): rapid improvement
PBC-40 itch domain, change from baseline after 12 weeks ([1]; all treatment groups including placebo, p≤0.05): significant improvement
FGF-19 mean change from baseline compared with placebo (ANCOVA) ([2]; 40 mg BID): statistically significant reductions
serum C4 increase ([2]; 40 mg BID and 90 mg BID doses): largest increase
serum autotaxin concentration compared with placebo ([2]; 40 mg BID, Week 16): significantly decreased
C4 LS mean ratio increases from baseline (MMRM) ([2]; 180 mg QD and both BID treatment groups): largest increases
LDL cholesterol compared to the placebo group ([2]; Week 16, all linerixibat treatment groups with the exception of 20 mg QD): significantly reduced
fibroblast growth factor-19 (FGF-19) reduction ([2]; two BID doses of 40 mg and 90 mg): greatest reduction
total serum bile acids (TSBA) compared with baseline (MMRM) ([2]; week 16, 40 mg and 90 mg BID): statistically significant decrease
